Read-outs that look alike come from different tables or passages of the source.
Experiments:
[1] = biological target: A2A adenosine receptors (Sus scrofa, UniProt K9IW67); assay: Competitive radioligand binding, [3H]ZM241385, pig striatum membranes; details: [3H]ZM241385, Gpp(NH)p present
Method: Membranes were also obtained from porcine striatial cells as follows. […] The homogenate was filtered through cotton gauze and centrifuged at 48,000g for 15 minutes at 4° C. […] The final pellet was frozen at −80° C. until used for receptor binding assays.

[2] = system: rat isolated perfused heart; assay: Reversal time of coronary vasodilation in rat isolated perfused hearts; details: bolus, rat isolated perfused heart;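 also: each agonist bolused at its minimal concentration giving equal maximal coronary conductance rise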
Method: FIG. 10. Reversal of effect of agonist stimulation on CC. […] CC was measured at 8, 16 and 24 minutes after administration (FIG. 10A). […] R and N are the correlation coefficient and number of agonists, respectively.
The relationship between the affinity of agonists for the A2A receptor and the rate of reversal of agonist-mediated responses (coronary vasodilation in heart and cAMP accumulation in PC12 cells) upon termination of drug administration were determined. […] The duration of the coronary vasodilation in isolated rat hearts caused by adenosine, the CVT compounds, and other agonists measured as the time to 50% and 90% (t0.5 and t0.9, respectively) reversal of the increases in coronary conductance after termination of drug administration are summarized in Table 4.

[3] = Coronary blood flow and reversal time, intracoronary infusion in open-chest anesthetized pigs; format: in vivo
Method: The magnitude of the effect of A2A adenosine receptor agonists on coronary dilation and the duration of the effect was determined in pigs weighing 22-27 kg. […] In addition, animals were used in accordance with the guidelines of the University of Kentucky Institutional Animal Care and Use Protocol.
Anesthesia was maintained with additional sodium pentobarbital (1.5-2 mg/kg, i.v.) every 15-20 minutes. Animals were ventilated via a tracheotomy tube using a mixture of room air and 100% O2. Tidal volume, respiratory rate and fraction of O2 in inspired air were adjusted to maintain arterial blood gas (ABG) and pH values. […] Lactate Ringers solution was administered via an ear or femoral vein as an initial bolus of 300-400 ml followed by a continuous infusion at a rate of 5-7 ml/kg/hr. A catheter was inserted into the femoral artery to monitor arterial blood pressure.
The heart was exposed through a median sternotomy and suspended in a pericardial cradle. Left ventricular pressure (LVP) was measured with a 5F high fidelity pressure sensitive tip transducer (Millar Instruments, Houston, Tex.) placed in the left ventricular cavity via an apical incision and secured with a purse string suture. A segment of the left anterior descending coronary artery (LAD), proximal to the origin of the first diagonal branch, was dissected free of surrounding tissue. A transit time perivascular flow probe (Transonic Systems Inc., Ithaca, N.Y.) was placed around this segment to measure CBF. Proximal to the flow probe, a 24-gauge modified angiocatheter was inserted for intracoronary infusions. […] The A2A adenosine receptors agonists were administered intracoronary.
Relationship between affinity of various agonists for A2A adenosine receptor and the reversal time of their effect to increase coronary conductance was determined in pigs. Each experiment was preceded by a 30-minute stabilization period following the completion of all instrumentation of the animal. Baseline hemodynamic data were then recorded and an intracoronary infusion of an A2A Adenosine receptors agonist was initiated. Each infusion was maintained for 4-5 minutes to allow LAD CBF to reach a steady-state, after which the infusion was terminated. The times to recovery of CBF by 50% (t0.5) and 90% (t0.9) of the difference from peak effect to baseline CBF were recorded. Ten to 15 minutes after CBF returned to pre-drug values a second infusion with a different agonist was started. […] Hemodynamic measurements were made prior to and following the initiation of the phenylephrine infusion. The phenylephrine infusion rate was adjusted during and following the infusions of the adenosine receptor agonists to maintain arterial blood pressure within 5 mmHg of pre-infusion values. The effect of a maximum of three different agonists was determined in each experiment.

[4] = biological target: T1, human A1 adenosine receptors (Homo sapiens, UniProt P30542); assay: Competitive radioligand binding, [3H]CPX, CHO-hA1AdoR membranes; details: in words
T1 construct: expressed in transfected cells
T1 sequence (P30542 1-326): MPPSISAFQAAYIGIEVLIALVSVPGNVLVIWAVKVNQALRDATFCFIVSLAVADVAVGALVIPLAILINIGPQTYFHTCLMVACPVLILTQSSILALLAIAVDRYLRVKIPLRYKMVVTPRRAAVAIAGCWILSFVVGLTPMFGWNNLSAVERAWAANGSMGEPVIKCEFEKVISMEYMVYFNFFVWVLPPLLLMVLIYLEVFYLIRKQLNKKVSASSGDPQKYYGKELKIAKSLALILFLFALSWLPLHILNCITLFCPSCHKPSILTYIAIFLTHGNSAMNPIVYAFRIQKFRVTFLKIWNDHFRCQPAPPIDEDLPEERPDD
Method: The cell suspensions were homogenized and centrifuged at 48,000g for 15 minutes. The pellets were washed three times by re-suspension in ice-cold Tris-HCl buffer and centrifugation. The final pellet was re-suspended in Tris-HCl, aliquoted and frozen at −80° C. until used for receptor binding assays.

[5] = system: rat isolated perfused heart; assay: Coronary conductance / coronary perfusion pressure in isolated perfused rat hearts; details: for EC50: Rattus norvegicus
Method: Briefly, rats of either sex weighing 230-260 grams were anesthetized by intraperitoneal injection of a mixture of ketamine (100 mg/ml) and xylazine (20 mg/ml). The chest of each rat was opened and the heart removed, and rinsed in ice-cold modified Krebs-Henseleit (K-H) solution containing NaCl 117.9, KCl 4.5, CaCl2 2.5, MgSO4 1.18, KH2PO4 1.18, pyruvate 2.0 mmo/L. The aorta was cannulated and the heart was perfused at a flow rate of 10 ml/min with modified K-H solution. The K-H solution (pH 7.4) was gassed continuously with 95% O2 and 5% CO2 and warmed to 35±0.5° C. The heart was electrically paced at a fixed cycle length of 240 ms (250 beats/min) using a bipolar electrode placed in the left atrium. The electrical stimuli were generated by a Grass stimulator (Model S48, W. Warwick, R.I.) and delivered through a Stimuli Isolation Unit (Model SIU5, Astro-Med, Inc., NY) as square-wave pulses of 3-msec in duration and with an amplitude of at least twice the threshold intensity.
The identity of the adenosine receptor subtype (A1 or A2A) mediating the coronary vasodilation was determined.
Coronary perfusion pressure (CPP) was measured using a pressure transducer that was connected to the aortic cannula via a T-connector positioned approximately 3 cm above the heart. CPP was monitored throughout an experiment and recorded either on a chart recorder (Gould Recorder 2200S, Valley View, Ohio) or a computerized recording system (PowerLab/4S, ADInstruments Pty Ltd, Australia). Only hearts with CPP ranging from 60 to 85 mmHg (in the absence of drugs) were used in the study. CC conductance (in ml/min/mmHg) was calculated as the ratio between coronary perfusion rate (10 ml/min) and CPP.

[6] = read-out: Ki, Pig Strialum (A2A)
[7] = read-out: pKi ± SEM, Pig Strialum (A2A) (converted)

Sequence of A2A adenosine receptors (K9IW67 1-409): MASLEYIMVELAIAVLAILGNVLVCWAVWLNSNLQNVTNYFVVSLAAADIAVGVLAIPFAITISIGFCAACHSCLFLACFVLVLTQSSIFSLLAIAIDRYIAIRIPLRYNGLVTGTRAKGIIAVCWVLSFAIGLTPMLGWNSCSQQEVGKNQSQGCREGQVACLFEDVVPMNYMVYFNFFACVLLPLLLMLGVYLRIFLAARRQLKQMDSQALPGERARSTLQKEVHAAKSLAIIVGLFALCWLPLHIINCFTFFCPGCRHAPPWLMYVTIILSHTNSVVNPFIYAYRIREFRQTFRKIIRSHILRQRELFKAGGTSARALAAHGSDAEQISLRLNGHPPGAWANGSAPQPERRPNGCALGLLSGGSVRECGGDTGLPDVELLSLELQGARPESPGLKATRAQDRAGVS

Structure (SMILES)	Ki [1, 6] [µM]	t0.5, time to 50% reversal of the increase in coronary conductance [2] [min]	t0.9, time to 90% reversal of the increase in coronary conductance [2] [min]	further results
Cc1ccc(-c2cnn(-c3nc(N)c4ncn([C@@H]5O[C@H](CO)[C@@H](O)[C@H]5O)c4n3)c2)cc1	0.502	13.6 ± 1.3	18.9 ± 1.9	Ki [1, 7]: 0.49 µM
Nc1nc(-c2cccs2)nc2c1ncn2[C@@H]1O[C@H](CO)[C@@H](O)[C@H]1O [CVT-3003, (4S,2R,3R,5R)-2-(6-amino-2-(2-thienyl)pruin-9-yl)-5-(hydroxymethyl)oxolane-3,4-diol]	1.01	3.4 ± 0.1	9.2 ± 2.2	–
C[C@H](Cc1ccccc1)Nc1ncnc2c1ncn2[C@@H]1O[C@H](CO)[C@@H](O)[C@H]1O [R-PIA, Phenylisopropyladenosine, reference compound]	1.11	–	–	pKi ± SEM, Pig Strialum (A2A) [1]: 5.96 ± 0.06
CCOC(=O)c1cnn(-c2nc(N)c3ncn([C@@H]4O[C@H](CO)[C@@H](O)[C@H]4O)c3n2)c1 [CVT-3127, ethyl 1-{9-[(4S,2R,3R,5R)-3,4-dihydroxy-5-(hydromethyl)oxolan-2-yl]-6-aminopurin-2-yl}pyrazole-4-carboxylate]	0.064	14.8 ± 2.1	15.0 ± 0.8	Ki [1, 7]: 0.0603 µM
Cc1ccc(-c2nc(N)c3ncn([C@@H]4O[C@H](CO)[C@@H](O)[C@H]4O)c3n2)s1 [CVT-3100]	0.697	5.1 ± 0.6	10.1 ± 0.2	–
CCCCCCC#Cc1nc(N)c2ncn([C@@H]3O[C@H](CO)[C@@H](O)[C@H]3O)c2n1 [YT-146, reference compound]	0.0163	17.7 ± 1.0	25.8 ± 4.0	pKi ± SEM, Pig Strialum (A2A) [1]: 7.86 ± 0.33; CBF (fold-increase) ([3]; 1 ug/kg/min intracoronary): 3.44 ± 0.47 fold; t0.5 reversal of increase in coronary blood flow ([3]; 1 ug/kg/min intracoronary): 17.8 ± 3.4 min; t0.9 reversal of increase in coronary blood flow ([3]; 1 ug/kg/min intracoronary): 32.9 ± 5.6 min
CCNC(=O)[C@H]1O[C@@H](n2cnc3c(N)nc(NCCc4ccc(CCC(=O)O)cc4)nc32)[C@H](O)[C@@H]1O [CGS21680, 2-p-(2-carboxy-ethyl) phenethyl-amino-5′-N-ethylcarboxamido-adenosine, reference compound]	–	–	–	affinity for the A1 receptor expressed by CHO-K1 cells [4]: relatively low affinities; decrease in coronary perfusion pressure ([5]; 100 nM, isolated rat heart): 23 mmHg; EC50 ([5]; read-out: EC50, Coronary Conductance (Rat Isolated Heart)): 0.00054 µM; EC50 ([5]; read-out: pEC50 ± SEM, Coronary Conductance (Rat Isolated Heart) (converted)): 0.000537 µM; effect on coronary conductance ([5]; isolated rat hearts, in words): concentration-dependent increases in coronary conductance; t0.5 reversal of increase in coronary blood flow ([3]; 2 ug/kg/min intracoronary): 9.7 ± 0.8 min; t0.9 reversal of increase in coronary blood flow ([3]; 2 ug/kg/min intracoronary): 21.4 ± 0.8 min
CCCCC#Cc1nc(N)c2ncn([C@@H]3O[C@H](C(=O)NCC)[C@@H](O)[C@H]3O)c2n1 [HENECA, 2-hexynyladenosine-5′-N-ethyl-, reference compound]	0.00796	28.6 ± 1.1	32.8 ± 3.1	pKi ± SEM, Pig Strialum (A2A) [1]: 8.10 ± 0.08
Nc1nc(-n2cc(-c3ccc(Cl)cc3)cn2)nc2c1ncn2[C@@H]1O[C@H](CO)[C@@H](O)[C@H]1O [CVT-3141, (4S,2R,3R,5R)-2-{6-amino-2-[4-(4-chlorophenyl)pyrazole]purin-9-yl}-5-(hydroxymethyl)oxolane-3,4-diol]	–	14.4 ± 1.9	21.3 ± 3.9	–
Nc1nc(C#CCOc2ccccc2Cc2ccccc2)nc2c1ncn2[C@@H]1O[C@H](CO)[C@@H](O)[C@H]1O [CVT-3006, (4S,2R,3R,5R)-2-(6-amino-2-{3-[2-benzylphenoxy]prop-1-ynyl}purin-9-yl)-5-(hydroxymethyl)oxolane-3,4-diol]	0.064	16.1 ± 0.1	21.8 ± 2.0	Ki [1, 7]: 0.0575 µM
Nc1nc(-c2cnn(CCCc3ccccc3)c2)nc2c1ncn2[C@@H]1O[C@H](CO)[C@@H](O)[C@H]1O [CVT-3126, (4S,2R,3R,5R)-2-{6-amino-2-[1-(3-phenylpropyl)pyrazol-4-yl]purin-9-yl}-5-(hydroxymethyl)oxolane-3,4-diol]	1.67	8.3 ± 0.4	12.6 ± 0.3	–
N#Cc1ccc(OCC#Cc2nc(N)c3ncn([C@@H]4O[C@H](CO)[C@@H](O)[C@H]4O)c3n2)cc1 [CVT-3101, 4-(3-{9-[(4S,2R,3R,5R)-3,4-dihydroxy-5-(hydroxymethyl)oxolan-2-yl]-6-aminopurin-2-yl}prop-2-ynyloxy)benzenecarbonitrile]	0.094	16.7 ± 0.5	25.6 ± 0.3	–
